ChEMBL document CHEMBL4602617, “Discovery and optimization of heteroaryl piperazines as potent and selective PI3Kδ inhibitors” (Bioorg Med Chem Lett, 2020)

What was measured:
[1] = Half life in rat at 0.5 mg/kg, iv 1 mg/kg, po; type: ADME, organism-based; details: in vivo
[2] = molecular target: Tyrosine-protein kinase Blk (Homo sapiens, UniProt P51451); assay: Inhibition of recombinant full length human His-tagged BLK cytoplasmic domain expressed in baculovirus expression system using tyrosine-1 peptide as substrate incubated for 60 mins in presence of ATP by Z'-LYTE assay
[3] = molecular target: Tyrosine-protein kinase JAK3 (Homo sapiens, UniProt P52333); assay: Inhibition of recombinant human GST-tagged JAK3 catalytic domain (781 to 1124 residues) expressed in baculovirus expression system using tyrosine-6 peptide as substrate incubated for 60 mins in presence of ATP by Z'-LYTE assay
Chain of Tyrosine-protein kinase JAK3 (P52333 whole entry, the tested form may be a part): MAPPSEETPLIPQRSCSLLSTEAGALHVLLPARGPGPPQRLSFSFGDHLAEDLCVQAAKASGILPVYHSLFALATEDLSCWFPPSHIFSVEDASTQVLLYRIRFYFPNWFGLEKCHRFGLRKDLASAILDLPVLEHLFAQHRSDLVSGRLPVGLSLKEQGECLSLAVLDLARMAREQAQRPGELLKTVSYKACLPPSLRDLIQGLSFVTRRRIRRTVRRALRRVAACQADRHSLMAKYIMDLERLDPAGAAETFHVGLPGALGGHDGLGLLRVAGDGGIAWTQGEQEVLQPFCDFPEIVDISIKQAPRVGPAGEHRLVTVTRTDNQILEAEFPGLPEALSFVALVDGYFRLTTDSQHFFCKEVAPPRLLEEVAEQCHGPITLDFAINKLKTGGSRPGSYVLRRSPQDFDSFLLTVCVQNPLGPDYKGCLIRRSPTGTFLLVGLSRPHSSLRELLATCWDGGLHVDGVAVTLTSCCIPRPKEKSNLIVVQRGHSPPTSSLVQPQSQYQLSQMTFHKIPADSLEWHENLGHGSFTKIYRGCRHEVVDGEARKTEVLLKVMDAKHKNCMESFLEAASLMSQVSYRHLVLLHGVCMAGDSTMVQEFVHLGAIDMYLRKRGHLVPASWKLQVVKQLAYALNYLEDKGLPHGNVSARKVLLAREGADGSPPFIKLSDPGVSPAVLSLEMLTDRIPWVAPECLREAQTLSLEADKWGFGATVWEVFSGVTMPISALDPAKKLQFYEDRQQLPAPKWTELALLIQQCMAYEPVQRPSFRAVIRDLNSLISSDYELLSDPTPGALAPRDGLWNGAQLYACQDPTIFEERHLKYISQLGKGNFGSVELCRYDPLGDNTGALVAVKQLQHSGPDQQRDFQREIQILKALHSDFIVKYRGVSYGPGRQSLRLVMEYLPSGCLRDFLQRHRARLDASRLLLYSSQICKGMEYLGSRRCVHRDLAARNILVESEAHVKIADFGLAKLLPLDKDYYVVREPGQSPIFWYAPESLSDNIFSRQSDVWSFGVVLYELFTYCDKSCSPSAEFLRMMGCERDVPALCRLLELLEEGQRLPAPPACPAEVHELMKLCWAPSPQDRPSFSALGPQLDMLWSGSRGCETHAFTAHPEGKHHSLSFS

[4] = molecular target: Vasoactive intestinal polypeptide receptor 1 (Homo sapiens) (UniProt P32241); assay: Displacement of [125I]VIP from human HT-29 cells derived VIP1 at 10 uM after 60 mins by radiometric scintillation analysis relative to control; type: cell-based
[5] = molecular target: Muscarinic acetylcholine receptor M4 (Homo sapiens) (UniProt P08173); assay: Displacement of [3H]N-Methylscopolamine from full length human recombinant Muscarinic M4 receptor expressed in CHOK1 cells at 10 uM measured after 120 mins by radiometric scintillation analysis relative to control; type: cell-based; details: CHO-K1
Chain of Muscarinic acetylcholine receptor M4 (Homo sapiens) (P08173 whole entry): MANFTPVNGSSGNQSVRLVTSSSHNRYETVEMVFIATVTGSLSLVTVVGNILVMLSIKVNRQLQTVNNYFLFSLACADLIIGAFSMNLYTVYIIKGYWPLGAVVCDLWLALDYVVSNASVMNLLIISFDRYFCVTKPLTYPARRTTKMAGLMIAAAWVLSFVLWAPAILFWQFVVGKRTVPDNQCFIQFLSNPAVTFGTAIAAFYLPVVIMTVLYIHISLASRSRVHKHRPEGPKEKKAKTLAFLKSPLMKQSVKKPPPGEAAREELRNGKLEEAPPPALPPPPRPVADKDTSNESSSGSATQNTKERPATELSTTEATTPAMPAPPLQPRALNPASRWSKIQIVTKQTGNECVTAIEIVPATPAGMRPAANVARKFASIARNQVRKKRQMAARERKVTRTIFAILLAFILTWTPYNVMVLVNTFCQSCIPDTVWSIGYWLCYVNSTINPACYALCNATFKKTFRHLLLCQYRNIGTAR

[6] = molecular target: Muscarinic acetylcholine receptor M3 (Homo sapiens) (UniProt P20309); assay: Displacement of [3H]N-Methylscopolamine from full length human recombinant Muscarinic M3 receptor expressed in CHOK1 cells at 10 uM measured after 120 mins by radiometric scintillation analysis relative to control; type: cell-based; details: CHO-K1
[7] = molecular target: Melanocortin receptor 5 (Homo sapiens) (UniProt P33032); assay: Displacement of [125I]NDP-alpha-MSH from full length human recombinant MC5 receptor expressed in HEK293 cells at 10 uM measured after 120 mins by radiometric scintillation analysis relative to control; type: cell-based
Chain of Melanocortin receptor 5 (Homo sapiens) (P33032 whole entry): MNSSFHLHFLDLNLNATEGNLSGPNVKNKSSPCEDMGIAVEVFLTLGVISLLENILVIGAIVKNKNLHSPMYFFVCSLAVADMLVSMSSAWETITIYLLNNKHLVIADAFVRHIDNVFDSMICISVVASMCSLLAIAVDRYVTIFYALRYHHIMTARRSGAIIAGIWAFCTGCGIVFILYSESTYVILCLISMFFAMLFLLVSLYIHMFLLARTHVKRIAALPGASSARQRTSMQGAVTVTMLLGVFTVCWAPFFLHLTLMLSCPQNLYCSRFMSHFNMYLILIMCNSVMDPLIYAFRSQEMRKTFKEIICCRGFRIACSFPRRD

[8] = molecular target: Histamine H3 receptor (Homo sapiens) (UniProt Q9Y5N1); assay: Displacement of [3H]N-alpha-Methylhistamine from full length human recombinant histamine H3 receptor expressed in CHO-K1 cells at 10 uM measured after 120 mins by radiometric scintillation analysis relative to control; type: cell-based
[9] = molecular target: Cholecystokinin receptor type A (Homo sapiens) (UniProt P32238); assay: Displacement of [3H]L-364,718 from recombinant full length human recombinant CCK1 expressed in 1321-N1 cells at 10 uM measured after 60 mins by radiometric scintillation analysis relative to control; type: cell-based
[10] = molecular target: Dual specificity protein kinase CLK3 (Homo sapiens, UniProt P49761); assay: Inhibition of recombinant full length human GST-tagged CLK3 expressed in baculovirus expression system using serine/threonine-18 peptide as substrate incubated for 60 mins in presence of ATP by Z'-LYTE assay
[11] = molecular target: Macrophage colony-stimulating factor 1 receptor (Homo sapiens, UniProt P07333); assay: Inhibition of recombinant human His-tagged CSF1R catalytic domain (538 to 910 residues) expressed in baculovirus expression system using tyrosine-1 peptide as substrate incubated for 60 mins in presence of ATP by Z'-LYTE assay
[12] = molecular target: Dual specificity tyrosine-phosphorylation-regulated kinase 1B (Homo sapiens, UniProt Q9Y463); assay: Inhibition of recombinant full length human GST-tagged DYRK1B expressed in baculovirus expression system using serine/threonine-18 peptide as substrate incubated for 60 mins in presence of ATP by Z'-LYTE assay
[13] = molecular target: Fibroblast growth factor receptor 1 (Homo sapiens, UniProt P11362); assay: Inhibition of recombinant His-tagged human FGFR1 cytoplasmic domain expressed in baculovirus expression system using Tyr 04 peptide as substrate after 1 hr in presence of ATP by Z'-LYTE assay
[14] = molecular target: Inhibitor of nuclear factor kappa-B kinase subunit alpha (Homo sapiens, UniProt O15111); assay: Inhibition of recombinant full length His-tagged human IKKalpha expressed in baculovirus expression system after 1 hr in presence of ATP by Adapta assay
Chain of Inhibitor of nuclear factor kappa-B kinase subunit alpha (O15111 whole entry, the tested form may be a part): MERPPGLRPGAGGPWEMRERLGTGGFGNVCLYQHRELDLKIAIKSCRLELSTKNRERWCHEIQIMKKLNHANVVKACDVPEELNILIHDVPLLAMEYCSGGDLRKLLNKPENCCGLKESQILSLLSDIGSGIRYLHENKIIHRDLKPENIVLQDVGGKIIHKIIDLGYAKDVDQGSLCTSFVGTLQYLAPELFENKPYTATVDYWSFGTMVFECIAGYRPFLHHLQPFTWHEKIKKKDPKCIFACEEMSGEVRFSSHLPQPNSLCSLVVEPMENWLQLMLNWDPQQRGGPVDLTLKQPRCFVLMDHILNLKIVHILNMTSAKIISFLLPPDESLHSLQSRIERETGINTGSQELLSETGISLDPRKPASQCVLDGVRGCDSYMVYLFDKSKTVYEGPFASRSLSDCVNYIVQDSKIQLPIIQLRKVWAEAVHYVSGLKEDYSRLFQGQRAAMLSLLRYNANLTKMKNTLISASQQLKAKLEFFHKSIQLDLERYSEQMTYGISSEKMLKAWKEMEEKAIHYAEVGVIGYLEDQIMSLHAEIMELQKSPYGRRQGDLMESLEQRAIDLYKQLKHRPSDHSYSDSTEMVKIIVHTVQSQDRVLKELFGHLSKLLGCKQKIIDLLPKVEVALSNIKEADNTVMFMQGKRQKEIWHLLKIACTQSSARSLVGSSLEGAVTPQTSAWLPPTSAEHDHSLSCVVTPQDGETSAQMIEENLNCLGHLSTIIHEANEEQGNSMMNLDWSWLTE

[15] = molecular target: Insulin receptor-related protein (Homo sapiens, UniProt P14616); assay: Inhibition of recombinant human GST-tagged INSRR cytoplasmic domain expressed in baculovirus expression system using tyrosine-1 peptide as substrate incubated for 60 mins in presence of ATP by Z'-LYTE assay
[16] = molecular target: T1, Tyrosine-protein kinase JAK2 (Homo sapiens, UniProt O60674); assay: Inhibition of human recombinant GST tagged JAK2 catalytic domain expressed in baculovirus expression system using Tyr6 peptide as substrate measured after 1 hr in presence of ATP by Z'-LYTE assay
T1 sequence (O60674 whole entry, the tested form may be a part): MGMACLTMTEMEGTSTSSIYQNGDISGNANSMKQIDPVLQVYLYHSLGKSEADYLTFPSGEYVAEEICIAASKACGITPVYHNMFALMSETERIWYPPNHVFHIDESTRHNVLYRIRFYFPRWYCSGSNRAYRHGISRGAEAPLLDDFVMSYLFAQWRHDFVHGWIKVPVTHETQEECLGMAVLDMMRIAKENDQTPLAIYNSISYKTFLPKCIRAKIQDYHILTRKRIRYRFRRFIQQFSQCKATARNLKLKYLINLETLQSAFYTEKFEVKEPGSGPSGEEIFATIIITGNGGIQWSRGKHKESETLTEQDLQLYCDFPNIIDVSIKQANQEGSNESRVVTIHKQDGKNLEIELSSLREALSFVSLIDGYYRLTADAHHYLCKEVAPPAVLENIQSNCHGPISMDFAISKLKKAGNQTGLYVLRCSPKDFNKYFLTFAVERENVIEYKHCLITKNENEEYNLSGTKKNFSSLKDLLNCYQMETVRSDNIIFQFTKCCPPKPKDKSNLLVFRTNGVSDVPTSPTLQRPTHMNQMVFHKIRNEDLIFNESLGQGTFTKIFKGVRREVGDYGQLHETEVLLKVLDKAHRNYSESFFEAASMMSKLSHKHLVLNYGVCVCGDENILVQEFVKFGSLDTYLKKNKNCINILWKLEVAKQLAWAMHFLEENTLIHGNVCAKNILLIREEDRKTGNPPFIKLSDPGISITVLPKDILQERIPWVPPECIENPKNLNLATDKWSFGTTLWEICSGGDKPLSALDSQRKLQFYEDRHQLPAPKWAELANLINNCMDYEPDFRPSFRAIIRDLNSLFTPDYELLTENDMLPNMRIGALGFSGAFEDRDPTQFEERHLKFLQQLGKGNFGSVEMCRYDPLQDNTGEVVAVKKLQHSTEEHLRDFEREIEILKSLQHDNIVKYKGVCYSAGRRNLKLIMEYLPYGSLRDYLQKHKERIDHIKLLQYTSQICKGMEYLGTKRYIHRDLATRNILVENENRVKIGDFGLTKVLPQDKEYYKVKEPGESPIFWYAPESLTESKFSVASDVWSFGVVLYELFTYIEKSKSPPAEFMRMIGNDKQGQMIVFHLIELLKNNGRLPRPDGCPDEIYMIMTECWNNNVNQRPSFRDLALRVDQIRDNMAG

[17] = molecular target: T1, Tyrosine-protein kinase JAK2; assay: Inhibition of recombinant GST-tagged human JAK2-JH1/JH2 domain (574 to 1154 residues) expressed in baculovirus expression system using Tyr 06 as substrate after 1 hr in presence of ATP by Z'LYTE assay
[18] = molecular target: Serine/threonine-protein kinase 26 (Homo sapiens, UniProt Q9P289); assay: Inhibition of recombinant full length human GST-tagged MST4 expressed in baculovirus expression system using serine/threonine-7 peptide as substrate incubated for 60 mins in presence of ATP by Z'-LYTE assay
[19] = molecular target: Serine/threonine-protein kinase PAK 2 (Homo sapiens, UniProt Q13177); assay: Inhibition of recombinant full length human GST-tagged PAK2 expressed in baculovirus expression system using serine/threonine-20 peptide as substrate incubated for 60 mins in presence of ATP by Z'-LYTE assay
[20] = molecular target: Serine/threonine-protein kinase PAK 5 (Homo sapiens, UniProt Q9P286); assay: Inhibition of recombinant human His-tagged PAK7 catalytic domain (425 to 719 residues) expressed in baculovirus expression system using serine/threonine-20 peptide as substrate incubated for 60 mins in presence of ATP by Z'-LYTE assay
Chain of Serine/threonine-protein kinase PAK 5 (Q9P286 whole entry, the tested form may be a part): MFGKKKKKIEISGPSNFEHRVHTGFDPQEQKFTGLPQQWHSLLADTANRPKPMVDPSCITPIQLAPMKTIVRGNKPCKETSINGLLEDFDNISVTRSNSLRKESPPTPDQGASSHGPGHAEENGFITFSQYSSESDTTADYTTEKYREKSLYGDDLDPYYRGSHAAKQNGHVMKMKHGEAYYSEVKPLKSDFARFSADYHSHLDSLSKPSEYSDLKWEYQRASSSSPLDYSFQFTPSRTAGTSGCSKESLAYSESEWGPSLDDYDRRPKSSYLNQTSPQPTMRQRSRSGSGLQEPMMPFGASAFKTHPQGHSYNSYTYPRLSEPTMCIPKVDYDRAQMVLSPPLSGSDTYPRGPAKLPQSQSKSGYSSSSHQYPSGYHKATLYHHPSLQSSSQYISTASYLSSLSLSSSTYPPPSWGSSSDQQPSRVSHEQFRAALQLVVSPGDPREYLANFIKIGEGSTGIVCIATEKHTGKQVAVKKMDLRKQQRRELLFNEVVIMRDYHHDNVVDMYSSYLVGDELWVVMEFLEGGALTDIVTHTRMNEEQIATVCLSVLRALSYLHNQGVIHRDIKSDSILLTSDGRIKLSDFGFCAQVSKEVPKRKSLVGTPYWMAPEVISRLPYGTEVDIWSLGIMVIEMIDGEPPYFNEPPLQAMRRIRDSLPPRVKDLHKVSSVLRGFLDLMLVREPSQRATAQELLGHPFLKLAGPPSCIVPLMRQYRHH

[21] = molecular target: Platelet-derived growth factor receptor alpha (Homo sapiens, UniProt P16234, T674I); assay: Inhibition of recombinant human GST-tagged PDGFRalpha cytoplasmic domain (550 to 1089 residues) harboring T674I mutant expressed in baculovirus expression system using tyrosine-4 peptide as substrate incubated for 60 mins in presence of ATP by Z'-LYTE assay
[22] = molecular target: Phosphorylase b kinase gamma catalytic chain, skeletal muscle/heart isoform (Homo sapiens, UniProt Q16816); assay: Inhibition of recombinant full length human GST-tagged PHKG1 expressed in baculovirus expression system using serine/threonine-7 peptide as substrate incubated for 60 mins in presence of ATP by Z'-LYTE assay
[23] = molecular target: Serine/threonine-protein kinase pim-2 (Homo sapiens, UniProt Q9P1W9); assay: Inhibition of recombinant full length GST-tagged human PIM2 expressed in baculovirus expression system using Ser/Thr 07 as substrate after 1 hr in presence of ATP by Z'-LYTE assay
Chain of Serine/threonine-protein kinase pim-2 (Q9P1W9 whole entry, the tested form may be a part): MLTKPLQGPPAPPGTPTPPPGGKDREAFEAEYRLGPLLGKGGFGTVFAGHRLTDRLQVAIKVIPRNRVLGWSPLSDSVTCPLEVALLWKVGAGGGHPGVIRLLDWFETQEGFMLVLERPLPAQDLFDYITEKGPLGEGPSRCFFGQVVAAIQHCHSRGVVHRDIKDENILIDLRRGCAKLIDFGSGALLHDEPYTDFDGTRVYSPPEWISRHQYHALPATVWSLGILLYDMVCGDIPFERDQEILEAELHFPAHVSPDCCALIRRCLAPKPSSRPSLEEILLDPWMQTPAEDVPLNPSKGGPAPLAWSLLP

[24] = molecular target: cAMP-dependent protein kinase catalytic subunit alpha (Homo sapiens, UniProt P17612); assay: Inhibition of recombinant human His-tagged PRKACA catalytic domain expressed in Escherichia coli using fluorophore-labeled serine/threonine-1 peptide as substrate incubated for 60 mins in presence of ATP by Z'-LYTE assay
[25] = molecular target: Ribosomal protein S6 kinase alpha-1 (Homo sapiens, UniProt Q15418); assay: Inhibition of recombinant full length human His-tagged RPS6KA1 expressed in baculovirus expression system using […] peptide as substrate incubated for 60 mins in presence of ATP by Z'-LYTE assay

For `C[C@@H]1C[C@H]1C(=O)N1CCN(c2cnc(C#N)c(-c3cnn(C)c3)n2)C[C@H]1C`, the half-life [1] was 36 min, the IC50 [2] was > 100 µM and the IC50 [3] was 13.7 µM. The inhibition [4] was 1%, the inhibition [5] was 3% and the inhibition [6] was 0%. It also gave an inhibition [7] of 22%, an inhibition [8] of -1% and an inhibition [9] of 3%. For the same compound, the IC50 [10] was > 100 µM, the IC50 [11] was > 100 µM and the IC50 [12] was > 100 µM. For the same compound, the IC50 [13] was > 100 µM, the IC50 [14] was > 100 µM and the IC50 [15] was > 100 µM. For the same compound, the IC50 [16] was > 100 µM, the IC50 [17] was > 100 µM and the IC50 [18] was > 100 µM. The IC50 [19] was > 100 µM, the IC50 [20] was > 100 µM and the IC50 [21] was > 100 µM. For the same compound, the IC50 [22] was > 100 µM, the IC50 [23] was > 100 µM and the IC50 [24] was > 100 µM. For the same compound, the IC50 [25] was > 100 µM.
